Reference: the supplement of paper PMC11061612

Legend:
Palbociclib = compound: CC(=O)c1c(C)c2cnc(Nc3ccc(N4CCNCC4)cn3)nc2n(C2CCCC2)c1=O [Palbociclib]; conditions: max 10 µM
Summary of the method: (§1)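 Cancer cell lines were seeded in 1536-well plates in 7.5 μl DMEM/F12 or RPMI with 10% FBS, held 24 hours at 37°C and 5% CO2, then dosed for 72 hours (final DMSO typically 0.2%). Viability was read by CellTiter-Glo 2.0 luminescence and scaled between blank-well and DMSO-well means. The single-agent IC50 comes from dose responses fitted to a two-parameter logistic curve with a non-linear mixed effects model.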

AZD1775 = compound: C=CCn1c(=O)c2cnc(Nc3ccc(N4CCN(C)CC4)cc3)nc2n1-c1cccc(C(C)(C)O)n1 [AZD1775]; conditions: max 3 µM
Summary of the method: as §1

Taselisib = compound: Cc1nc(-c2cn3c(n2)-c2ccc(-c4cnn(C(C)(C)C(N)=O)c4)cc2OCC3)n(C(C)C)n1 [Taselisib]; conditions: max 10 µM
Summary of the method: as §1

AZD5153 = compound: COc1nnc2ccc(N3CCC(c4ccc(OCCN5CCN(C)C(=O)[C@H]5C)cc4)CC3)nn12 [AZD5153]; conditions: max 1 µM
Summary of the method: as §1

Alisertib = compound: COc1cc(Nc2ncc3c(n2)-c2ccc(Cl)cc2C(c2c(F)cccc2OC)=NC3)ccc1C(=O)O [Alisertib]; conditions: max 10 µM
Summary of the method: as §1

AZD4320 = compound: CN(CC[C@H](CSC1=CC=CC=C1)NC2=C(C=C(C=C2)S(=O)(=O)NC(=O)C3=CC=C(C=C3)N4CCC(CC4)[C@H](C5=CC=CC=C5C6=CC=C(C=C6)Cl)O)S(=O)(=O)C(F)(F)F)CCO [AZD4320]; conditions: max 1 µM
Summary of the method: as §1

AZD8186 = compound: C[C@@H](Nc1cc(F)cc(F)c1)c1cc(C(=O)N(C)C)cc2c(=O)cc(N3CCOCC3)oc12 [AZD8186]; conditions: max 10 µM
Summary of the method: as §1

Trametinib = compound: CC(=O)Nc1cccc(-n2c(=O)n(C3CC3)c(=O)c3c(Nc4ccc(I)cc4F)n(C)c(=O)c(C)c32)c1 [Trametinib]; conditions: max 1 µM
Summary of the method: as §1

Crizotinib = compound: C[C@@H](Oc1cc(-c2cnn(C3CCNCC3)c2)cnc1N)c1c(Cl)ccc(F)c1Cl [Crizotinib]; conditions: max 10 µM
Summary of the method: as §1

AZD6738 = compound: C[C@@H]1COCCN1C2=NC(=NC(=C2)C3(CC3)[S@](=N)(=O)C)C4=C5C=CNC5=NC=C4 [AZD6738]; conditions: max 10 µM
Summary of the method: as §1

SRA737 = compound: N#Cc1cnc(Nc2cc(NC[C@H]3CNCCO3)c(C(F)(F)F)cn2)cn1 [SRA737]; conditions: max 10 µM
Summary of the method: as §1

Olaparib = compound: O=C(c1cc(Cc2n[nH]c(=O)c3ccccc23)ccc1F)N1CCN(C(=O)C2CC2)CC1 [Olaparib]; conditions: max 10 µM
Summary of the method: as §1

Dasatinib = compound: CC1=C(C(=CC=C1)Cl)NC(=O)C2=CN=C(S2)NC3=CC(=NC(=N3)C)N4CCN(CC4)CCO [Dasatinib]; conditions: max 2 µM
Summary of the method: as §1

[1] = compound: O=C(Nc1ccc2[nH]nc(-c3ccncc3)c2c1)[C@@H]1CCN(CC(=O)N2CCN(c3ccc(-c4ncccn4)cc3)CC2)C1; conditions: max 5 µM
Summary of the method: as §1

AZD7648 = compound: Cc1cc2ncnn2cc1Nc1ncc2c(n1)n(C1CCOCC1)c(=O)n2C [AZD7648]; conditions: max 10 µM
Summary of the method: as §1

MK-2206 = compound: NC1(c2ccc(-c3nc4ccn5c(=O)[nH]nc5c4cc3-c3ccccc3)cc2)CCC1 [MK-2206]; conditions: max 10 µM
Summary of the method: as §1

Gemcitabine = compound: Nc1ccn([C@@H]2O[C@H](CO)[C@@H](O)C2(F)F)c(=O)n1 [Gemcitabine]; conditions: max 0.3 µM
Summary of the method: as §1

SG3199 = compound: CC1=CN2[C@@H](C1)C=NC3=CC(=C(C=C3C2=O)OC)OCCCCCOC4=C(C=C5C(=C4)N=C[C@@H]6CC(=CN6C5=O)C)OC [SG3199]; conditions: max 0.001 µM
Summary of the method: as §1

Gefitinib = compound: COc1cc2ncnc(Nc3ccc(F)c(Cl)c3)c2cc1OCCCN1CCOCC1 [Gefitinib]; conditions: max 10 µM
Summary of the method: as §1

AZD1390 = compound: CC(C)n1c(=O)n(C)c2cnc3cc(F)c(-c4ccc(OCCCN5CCCCC5)nc4)cc3c21 [AZD1390]; conditions: max 0.3 µM
Summary of the method: as §1

AZD5991 = compound: Cc1c2c(nn1C)CSCc1cc(n(C)n1)CSc1cc(c3ccccc3c1)OCCCc1c(C(=O)O)n(C)c3c-2c(Cl)ccc13 [AZD5991]; conditions: max 1 µM
Summary of the method: as §1

Carboplatin = compound: C1CC(C1)(C(=O)[O-])C(=O)[O-].N.N.[Pt+2] [Carboplatin]; conditions: max 10 µM
Summary of the method: as §1

Lapatinib = compound: CS(=O)(=O)CCNCc1ccc(-c2ccc3ncnc(Nc4ccc(OCc5cccc(F)c5)c(Cl)c4)c3c2)o1 [Lapatinib]; conditions: max 10 µM
Summary of the method: as §1

Etoposide = compound: COc1cc([C@@H]2c3cc4c(cc3[C@@H](O[C@@H]3O[C@@H]5CO[C@@H](C)O[C@H]5[C@H](O)[C@H]3O)[C@H]3COC(=O)[C@H]23)OCO4)cc(OC)c1O [Etoposide]; conditions: max 10 µM
Summary of the method: as §1

Doxorubicin = compound: COc1cccc2c1C(=O)c1c(O)c3c(c(O)c1C2=O)C[C@@](O)(C(=O)CO)C[C@@H]3O[C@H]1C[C@H](N)[C@H](O)[C@H](C)O1 [Doxorubicin]; conditions: max 1 µM
Summary of the method: as §1

Venetoclax = compound: CC1(C)CCC(CN2CCN(c3ccc(C(=O)NS(=O)(=O)c4ccc(NCC5CCOCC5)c([N+](=O)[O-])c4)c(Oc4cnc5[nH]ccc5c4)c3)CC2)=C(c2ccc(Cl)cc2)C1 [Venetoclax]; conditions: max 1 µM
Summary of the method: as §1

5-Fluorouracil = compound: O=c1[nH]cc(F)c(=O)[nH]1 [5-Fluorouracil]; conditions: max 20 µM
Summary of the method: as §1

Selumetinib = compound: Cn1cnc2c(F)c(Nc3ccc(Br)cc3Cl)c(C(=O)NOCCO)cc21 [Selumetinib]; conditions: max 10 µM
Summary of the method: as §1

SN-38 = compound: CCc1c2c(nc3ccc(O)cc13)-c1cc3c(c(=O)n1C2)COC(=O)[C@]3(O)CC [SN-38]; conditions: max 0.3 µM
Summary of the method: as §1

Paclitaxel = compound: CC(=O)O[C@H]1C(=O)[C@@]2(C)[C@H]([C@H](OC(=O)c3ccccc3)[C@]3(O)C[C@H](OC(=O)[C@H](O)[C@@H](NC(=O)c4ccccc4)c4ccccc4)C(C)=C1C3(C)C)[C@]1(OC(C)=O)CO[C@@H]1C[C@@H]2O [Paclitaxel]; conditions: max 3 µM
Summary of the method: as §1

AZD5363 = compound: C1CN(CCC1(C(=O)N[C@@H](CCO)C2=CC=C(C=C2)Cl)N)C3=NC=NC4=C3C=CN4 [AZD5363]; conditions: max 10 µM
Summary of the method: as §1

Savolitinib = compound: C[C@@H](c1ccc2nccn2c1)n1nnc2ncc(-c3cnn(C)c3)nc21 [Savolitinib]; conditions: max 1 µM
Summary of the method: as §1

Prexasertib = compound: COc1cccc(OCCCN)c1-c1cc(Nc2cnc(C#N)cn2)n[nH]1 [Prexasertib]; conditions: max 1 µM
Summary of the method: as §1

AZD2811 = compound: CCN(CCO)CCCOc1ccc2c(Nc3cc(CC(=O)Nc4cccc(F)c4)[nH]n3)ncnc2c1 [AZD2811]; conditions: max 1 µM
Summary of the method: as §1

AZD0156 = compound: CN(C)CCCOc1ccc(-c2ccc3ncc4c(c3c2)n(C2CCOCC2)c(=O)n4C)cn1 [AZD0156]; conditions: max 3 µM
Summary of the method: as §1

Cell Line | IC50, cell viability 72 h (Palbociclib) | IC50, cell viability 72 h (AZD1775) | IC50, cell viability 72 h (Taselisib) | IC50, cell viability 72 h (AZD5153) | IC50, cell viability 72 h (Alisertib) | IC50, cell viability 72 h (AZD4320) | IC50, cell viability 72 h (AZD8186) | IC50, cell viability 72 h (Trametinib) | IC50, cell viability 72 h (Crizotinib) | IC50, cell viability 72 h (AZD6738) | IC50, cell viability 72 h (SRA737) | IC50, cell viability 72 h (Olaparib) | IC50, cell viability 72 h (Dasatinib) | IC50, cell viability 72 h [1] | IC50, cell viability 72 h (AZD7648) | IC50, cell viability 72 h (MK-2206) | IC50, cell viability 72 h (Gemcitabine) | IC50, cell viability 72 h (SG3199) | IC50, cell viability 72 h (Gefitinib) | IC50, cell viability 72 h (AZD1390) | IC50, cell viability 72 h (AZD5991) | IC50, cell viability 72 h (Carboplatin) | IC50, cell viability 72 h (Lapatinib) | IC50, cell viability 72 h (Etoposide) | IC50, cell viability 72 h (Doxorubicin) | IC50, cell viability 72 h (Venetoclax) | IC50, cell viability 72 h (5-Fluorouracil) | IC50, cell viability 72 h (Selumetinib) | IC50, cell viability 72 h (SN-38) | IC50, cell viability 72 h (Paclitaxel) | IC50, cell viability 72 h (AZD5363) | IC50, cell viability 72 h (Savolitinib) | IC50, cell viability 72 h (Prexasertib) | IC50, cell viability 72 h (AZD2811) | IC50, cell viability 72 h (AZD0156)
M059J (Glioblastoma) | > 10000 nM | 933 nM | > 10000 nM | 164 nM | 4060 nM | > 1000 nM | > 10000 nM | > 1000 nM | > 10000 nM | > 10000 nM | > 10000 nM | > 10000 nM | 1390 nM | > 5000 nM | > 10000 nM | > 10000 nM | 90.9 nM | > 1 nM | > 10000 nM | > 300 nM | > 1000 nM | > 10000 nM | > 10000 nM | 2590 nM | 230 nM | > 1000 nM | > 20000 nM | > 10000 nM | 14.1 nM | 17.6 nM | > 10000 nM | > 1000 nM | 241 nM | > 1000 nM | > 3000 nM
MN-60 (B-Lymphoblastic Leukemia) | > 10000 nM | > 3000 nM | > 10000 nM | 111 nM | > 10000 nM | > 1000 nM | > 10000 nM | > 1000 nM | > 10000 nM | > 10000 nM | > 10000 nM | > 10000 nM | > 2000 nM | > 5000 nM | > 10000 nM | > 10000 nM | 213 nM | > 1 nM | > 10000 nM | > 300 nM | > 1000 nM | > 10000 nM | > 10000 nM | > 10000 nM | > 1000 nM | > 1000 nM | > 20000 nM | > 10000 nM | 14.6 nM | 674 nM | > 10000 nM | > 1000 nM | > 1000 nM | > 1000 nM | > 3000 nM
MOG-G-CCM (Low Grade Glioma) | > 10000 nM | > 3000 nM | 8270 nM | 449 nM | 1930 nM | > 1000 nM | 4390 nM | > 1000 nM | > 10000 nM | > 10000 nM | > 10000 nM | > 10000 nM | 354 nM | > 5000 nM | > 10000 nM | > 10000 nM | > 300 nM | > 1 nM | > 10000 nM | > 300 nM | > 1000 nM | > 10000 nM | > 10000 nM | > 10000 nM | > 1000 nM | > 1000 nM | > 20000 nM | > 10000 nM | 293 nM | 4.97 nM | > 10000 nM | > 1000 nM | 157 nM | > 1000 nM | > 3000 nM
NCCIT (Other Solid Carcinomas) | > 10000 nM | 561 nM | 1620 nM | 33.6 nM | > 10000 nM | > 1000 nM | > 10000 nM | > 1000 nM | > 10000 nM | 8410 nM | > 10000 nM | > 10000 nM | > 2000 nM | > 5000 nM | > 10000 nM | 6670 nM | > 300 nM | > 1 nM | > 10000 nM | > 300 nM | 891 nM | > 10000 nM | > 10000 nM | > 10000 nM | > 1000 nM | > 1000 nM | > 20000 nM | > 10000 nM | > 300 nM | 11.8 nM | 8120 nM | > 1000 nM | 70.3 nM | > 1000 nM | > 3000 nM
OCI-AML3 (Acute Myeloid Leukemia) | 5340 nM | 615 nM | 1440 nM | 25.6 nM | – | > 1000 nM | > 10000 nM | 2.98 nM | 6530 nM | 1810 nM | 5320 nM | > 10000 nM | > 2000 nM | 156 nM | > 10000 nM | > 10000 nM | 5.04 nM | – | > 10000 nM | > 300 nM | 250 nM | > 10000 nM | > 10000 nM | 1270 nM | – | > 1000 nM | 3070 nM | 91.9 nM | 10.1 nM | 4.57 nM | > 10000 nM | > 1000 nM | – | 324 nM | > 3000 nM
